# Measurements published in patent US20250241905A1, “3-BETA-HSD1 INHIBITORS AND COMPOSITIONS AND USES THEREOF” (The Cleveland Clinic Foundation, priority 2022, published 2025).
# Columns and labels:
# human 3β-HSD1 = assay: 3β-HSD1 inhibition, colorimetric NADH detection assay; type: biochemical; conditions: purified recombinant human 3β-HSD1, 50 μM DHEA, 2 mM NAD+, 1 hour, room temperature, duplicate 10-point CRC; read-out: IC50 (nM), in vitro NADH inhibition
# Excerpt: Enzymatic turnover was quantified through NADH generation by purified, recombinant human 3β-HSD1 (expressed in Sf9 insect cells) in the presence of steroidal substrate trans-Dehydroandrosterone (DHEA) that was placed slightly above the experimentally determined Km and saturating amounts of co-factor Nicotinamide adenine dinucleotide (NAD^+). The sequence of recombinant human 3β-HSD1 used is […] […] […] […] […] […] […] (SEQ ID NO: 3). DHEA and NAD+ were enzymatically converted to androstenedione and NADH, respectively. Final NADH concentrations were spectroscopically quantified using a commercially available Amplite™ Colorimetric NADH Assay Kit which utilizes an NADH probe with an absorbance wavelength of 460 nm. Enzymatic assays with a final volume of 25 μL were ran in a 384-well, Greiner Bio-One UV-STAR® assay plate in 50 mM TRIS pH 8.0 assay buffer. […] Compound stocks at 10 mM in DMSO were serial diluted 5-fold in DMSO to generate an ECHO® compatible source plate. 125 nL of DMSO, Trilostane, or serial diluted compounds were then acoustically transferred into an empty UV-STAR® assay plate to give a final assay concentration of 0.5% v/v DMSO. The stamp volume and dilution scheme can be adjusted to accommodate compound potency. The assay can tolerate up to a 5% v/v DMSO final assay concentration. 15 μL of 1 μg purified 3β-HSD1 and 50 μM DHEA (final assay volume concentration) was dispensed per well into the stamped plate, centrifuged for 1 minute at 1000 RPM, covered, and allowed to incubate for 15 minutes at room temp. Enzymatic reactions were initiated upon the addition of 10 μL of NAD^+ diluted in assay buffer to give a final assay volume concentration of 2 mM. The assay plate was centrifuged for 1 minute at 1000 RPM, covered, and incubated at room temperature for 1 hour. 25 μL Amplite™ Colorimetric NADH Assay Kit detection solution (prepared as recommended) was added to all reaction wells, the plate centrifuged for 1 minute at 1000 RPM, covered, and incubated for 15 minutes. Final absorbance values (λ=460 nm) are spectroscopically determined on BioTek® Cytation5 or Synergy4 plate readers. […] From the background subtracted values, the non-inhibited enzyme signal (DMSO treated) was averaged from 32 control reactions. The percent inhibition value was calculated by: % inhibition=(1−((background subtracted inhibited reaction)/(background subtracted non-inhibited average)))*100. The resulting percent inhibition was then plotted in duplicate against corresponding concentration values. The resulting CRCs were fit with a four parameter, variable slope log (inhibitor) vs response equation where Y=bottomvalue+ (topvalue−bottomvalue)/(1+10^((log IC50−X)*Hillslope)) to determine the IC50 values for tested compounds.
# [1] = tested on: C4-2 prostate cancer cells; assay: Cellular viability of C4-2 cells (CellTiter-Glo); type: cell-based, human; conditions: Homo sapiens, 144 h, 6 days, 1% FBS + DHEA, read-out: GI50 (μM), growth inhibition
# Description: C4-2 cells were routinely maintained in RPMI+2 mM L-Glutamine+1× Anti-Anti+10% FBS. C4-2 cells were harvested by trypsinization for 90 seconds in 0.25% Trypsin-EDTA, counted with a Vi-Cell Blu cell counter (Beckman Coulter), and diluted into Complete Viability Media (RPMI+2 mM L-Glutamine+1× Anti-Anti+1% FBS+[…]) at a density of 10,000 cells/mL. 12-point, two-fold dilution series of test compounds (starting at 10 mM) were prepared in 100% DMSO, and then 450 nL of the dilution series were stamped in triplicate into 384-well, white, opaque bottom, TC-treated CulturPlate™ (Perkin Elmer 6007680) using acoustic dispensing (Labcyte Echo 550). 50 μL/well of the diluted C4-2 cells (500 cells/well) were added directly to the plates containing dispensed compounds, yielding a final [DMSO] of 0.9% and a final top [compound] of 90 μM. The plates were centrifuged for 1 min at 500×g and then incubated for 6 days at 37° C., 5% CO2. Cell density at the end of the assay was measured using 35 μL/well CellTiter-Glo® (Promega) per the manufacturer's recommendations, and total luminescence was measured on a Cytation 5 plate reader. Raw luminescence values were normalized from 0 (empty Viability Media+0.9% DMSO, no cells) to 100 (Cells+0.9% DMSO, maximum proliferation), triplicate values were averaged, and dose-response curves were fit and G150 values extracted using variable slope nonlinear regression in GraphPad Prism.
# [2] = tested on: Androstenedione synthesis in C4-2 prostate cancer cells; assay: Cell line steroid metabolism: androstenedione synthesis inhibition (HPLC, [3H]-labeled androgens); type: cell-based; conditions: Homo sapiens, serum-free RPMI-1640, [3H]-labeled androgens 25 nM
# Description: Cells were seeded and incubated in 12-well plates with 0.15 million cells/well in RPMI-1640 medium with 10% FBS for ˜24 h at 37° C. Culture medium was then replaced with serum-free RPMI-1640 and a mixture of radioactive ([3H]-labeled) and non-radioactive androgens (final concentration, 25 nM; ˜600,000 cpm/well; PerkinElmer, Waltham, MA) plus inhibitor compounds at specified concentrations was added. […]
# High-performance liquid chromatography (HPLC) analysis was performed on a Waters 1525 HPLC system (Waters Corp., Milford, MA). Dried samples were reconstituted in 50% methanol and injected into the HPLC. Steroids were separated on a Luna 150×4.6 mm, 3.0 μm particle size C18 reverse-phase column (Phenomenex, Torrance, CA) with a methanol/water gradient at 50° C. Column effluent was mixed with Liquiscint scintillation cocktail (National Diagnostics, Atlanta, GA) and analyzed using a β-RAM model 4 in-line radioactivity detector (LabLogic, Brandon, FL).
# C4-2 flank tumor = assay: CRPC C4-2 flank tumor model in mice; type: in vivo; conditions: orchiectomized NSG male mice with DHEA pellets, 100 mg/kg in water with 20% Captisol, oral gavage twice daily
# Description: The mouse study was performed under a protocol approved by the Institutional Animal Care and Use Committee of the Cleveland Clinic Lerner Research Institute. All NOD scid gamma (NSG) male mice (6 to 8 weeks old) were purchased from the Jackson Laboratory. 10^7 C4-2 cells were injected subcutaneously into mice with matrigel (total injection volume 100 μL). Once tumors reached 100 mm^3 (length×width×height×0.52), mice were surgically orchiectomized and implanted with 5 mg 90-day sustained-release DHEA pellets (Innovative Research of America) to mimic human adrenal DHEA production in patients with CRPC, then the mice were arbitrarily (but not strictly randomized) assigned to vehicle (n=6), Compound 1 (n=6), or Compound 5 (n=6). The mice were given vehicle, Compound 1 (100 mg/kg in water with 20% Captisol), or Compound 5 (100 mg/kg in water with 20% Captisol) by oral gavage twice daily.
# human 3β-HSD1, sequence (P14060 2-373 limits assumed): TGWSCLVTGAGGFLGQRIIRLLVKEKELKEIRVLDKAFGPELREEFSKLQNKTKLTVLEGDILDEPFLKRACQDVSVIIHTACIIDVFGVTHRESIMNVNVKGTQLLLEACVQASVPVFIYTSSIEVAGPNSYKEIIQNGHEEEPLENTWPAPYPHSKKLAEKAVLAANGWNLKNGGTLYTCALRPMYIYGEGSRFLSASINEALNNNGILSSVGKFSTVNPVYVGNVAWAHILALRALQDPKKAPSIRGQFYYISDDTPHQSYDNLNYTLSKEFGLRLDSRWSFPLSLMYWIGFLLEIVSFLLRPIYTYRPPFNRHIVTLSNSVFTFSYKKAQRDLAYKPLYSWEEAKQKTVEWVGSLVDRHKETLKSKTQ
SMILES,IC50 (human 3β-HSD1),GI50 [1],IC50 [2],tumor volume compared to vehicle control (C4-2 flank tumor)
"O=C1CCCc2nc(-c3cc(F)c(O)c(F)c3)ccc21 [Compound 1, 2-(3,5-difluoro-4-hydroxyphenyl)-7,8-dihydroquinolin-5(6H)-one]",62 nM,53 µM,83 nM,reduction in tumor volume
"O=C1CCCc2nc(-c3ccc(O)c(F)c3)ccc21 [Compound 2, 2-(3-fluoro-4-hydroxyphenyl)-7,8-dihydroquinolin-5(6H)-one]",45 nM,59 µM,14 nM,–
"CC1(C)CCc2nc(-c3cc(F)c(O)c(F)c3)ccc2C1=O [Compound 5, 2-(3,5-difluoro-4-hydroxyphenyl)-6,6-dimethyl-7,8-dihydroquinolin-5(6H)-one]",71 nM,26 µM,1.4 nM,reduction in tumor volume
"CC1CCc2nc(-c3cc(F)c(O)c(F)c3)ccc2C1=O (stereo not shown) [Compound 7, 2-(3,5-difluoro-4-hydroxyphenyl)-6-methyl-7,8-dihydroquinolin-5(6H)-one]",64 nM,37 µM,7.2 nM,–
"O=C1c2ccc(-c3cc(F)c(O)c(F)c3)nc2CCC1Cc1ccccc1 (stereo not shown) [Compound 9, 6-benzyl-2-(3,5-difluoro-4-hydroxyphenyl)-7,8-dihydroquinolin-5(6H)-one]",37 nM,6 µM,10 nM,–
O=C1c2ccc(-c3cc(F)c(O)c(F)c3)nc2CCC12CC2 [Compound 11],68 nM,10 µM,4.8 nM,–
CCC1(CC)CCc2nc(-c3cc(F)c(O)c(F)c3)ccc2C1=O [Compound 59],71 nM,–,3.8 nM,–
